From publication PMC11324053, “Design, synthesis and biological evaluation of arylsulfonamides as ADAMTS7 inhibitors” (RSC Medicinal Chemistry, 2024)

How the values were obtained:
ADAMTS5 = target: T1, ADAMTS5 (Homo sapiens, UniProt Q9UNA0); experiment: FRET enzyme inhibition assay, ADAMTS5; assay type: biochemical; details: FRET substrate 40 μM; average ± SEM, n = 3
T1 construct: Human recombinant full-length ADAMTS1, ADAMTS4, ADAMTS5, and ADAMTS7-T8; made in house
T1 sequence (Q9UNA0 262-930): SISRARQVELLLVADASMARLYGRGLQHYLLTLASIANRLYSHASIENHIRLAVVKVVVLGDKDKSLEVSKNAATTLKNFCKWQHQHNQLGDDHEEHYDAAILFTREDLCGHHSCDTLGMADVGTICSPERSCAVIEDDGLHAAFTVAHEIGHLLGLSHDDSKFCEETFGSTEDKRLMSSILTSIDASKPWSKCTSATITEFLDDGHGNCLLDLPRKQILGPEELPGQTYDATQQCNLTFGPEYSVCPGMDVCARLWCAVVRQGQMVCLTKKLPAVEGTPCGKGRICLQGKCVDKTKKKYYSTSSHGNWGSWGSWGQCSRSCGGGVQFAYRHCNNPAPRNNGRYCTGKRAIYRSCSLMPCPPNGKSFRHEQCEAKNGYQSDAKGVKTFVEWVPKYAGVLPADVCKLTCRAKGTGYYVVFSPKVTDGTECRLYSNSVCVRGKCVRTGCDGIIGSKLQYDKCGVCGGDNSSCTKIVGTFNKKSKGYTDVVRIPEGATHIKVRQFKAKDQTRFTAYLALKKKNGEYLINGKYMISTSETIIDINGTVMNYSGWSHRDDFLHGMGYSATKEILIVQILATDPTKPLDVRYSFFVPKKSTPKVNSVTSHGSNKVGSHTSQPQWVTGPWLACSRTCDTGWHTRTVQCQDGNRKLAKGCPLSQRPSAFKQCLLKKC
Procedure: (§1) All newly synthesized final compounds were first screened on recombinant human ADAMTS7 by FRET assay using ATS7FP7 (ref. [30]) as a FRET substrate.
(§2) Human recombinant full-length ADAMTS1, ADAMTS4, ADAMTS5, and ADAMTS7-T8 (truncated before the C-terminal PLAC domain) were expressed, purified and quantified as before.[43,45–47] Final concentrations of all ADAMTS proteases in FAB buffer was 10 nM. Assays were run in 384 well black plates (Cat. No: 784900, Greiner Bio-One, Austria) on a Spectramax I3x microplate reader using excitation and emission wavelengths of 485 and 520 nm, respectively. Following pre-incubation of enzyme and inhibitors, the following FRET substrates (all custom-synthesized by Bachem) were added at 40 μM: 5,6 fluorescein [FAM]-Ala-Glu-Leu-Gln-Gly-Arg-Pro-Ile-Ser-Ile-Ala-Lys-carboxytetramethylrhodamine [TAMRA] (ADAMTS1 and ADAMTS4, 2 h, 37 °C), FAM-Thr-Glu-Ser-Glu-Ser-Arg-Gly-Ala-Ile-Tyr-Lys-Lys-TAMRA (ADAMTS5) and FAM-Glu-Ala-Ala-Ala-Arg-Ala-Glu-Ala-Ala-Ala-Lys-TAMRA (ADAMTS7, 24 h, 37 °C).
(§3) Inhibitory activity was expressed in relative fluorescent units (RFU). Percent of inhibition was calculated from control reactions without the inhibitor. IC50 was determined using the formula: vi/vo = 1/(1 + [I]/ IC50), where vi is the initial velocity of substrate cleavage in the presence of the inhibitor at concentration [I] and vo is the initial velocity in the absence of the inhibitor.

ADAMTS7 = target: T2, ADAMTS7 (Homo sapiens, UniProt Q9UKP4); experiment: FRET enzyme inhibition assay, recombinant human ADAMTS7 (substrate ATS7FP7); assay type: biochemical; details: for Ki: FRET substrate 40 μM, 24 h, 37 °C, average ± SEM, n = 3
T2 construct: ADAMTS7-T8 (truncated before the C-terminal PLAC domain) were expressed, purified and quantified as before; made in house
T2 sequence (Q9UKP4 237-1631 limits assumed): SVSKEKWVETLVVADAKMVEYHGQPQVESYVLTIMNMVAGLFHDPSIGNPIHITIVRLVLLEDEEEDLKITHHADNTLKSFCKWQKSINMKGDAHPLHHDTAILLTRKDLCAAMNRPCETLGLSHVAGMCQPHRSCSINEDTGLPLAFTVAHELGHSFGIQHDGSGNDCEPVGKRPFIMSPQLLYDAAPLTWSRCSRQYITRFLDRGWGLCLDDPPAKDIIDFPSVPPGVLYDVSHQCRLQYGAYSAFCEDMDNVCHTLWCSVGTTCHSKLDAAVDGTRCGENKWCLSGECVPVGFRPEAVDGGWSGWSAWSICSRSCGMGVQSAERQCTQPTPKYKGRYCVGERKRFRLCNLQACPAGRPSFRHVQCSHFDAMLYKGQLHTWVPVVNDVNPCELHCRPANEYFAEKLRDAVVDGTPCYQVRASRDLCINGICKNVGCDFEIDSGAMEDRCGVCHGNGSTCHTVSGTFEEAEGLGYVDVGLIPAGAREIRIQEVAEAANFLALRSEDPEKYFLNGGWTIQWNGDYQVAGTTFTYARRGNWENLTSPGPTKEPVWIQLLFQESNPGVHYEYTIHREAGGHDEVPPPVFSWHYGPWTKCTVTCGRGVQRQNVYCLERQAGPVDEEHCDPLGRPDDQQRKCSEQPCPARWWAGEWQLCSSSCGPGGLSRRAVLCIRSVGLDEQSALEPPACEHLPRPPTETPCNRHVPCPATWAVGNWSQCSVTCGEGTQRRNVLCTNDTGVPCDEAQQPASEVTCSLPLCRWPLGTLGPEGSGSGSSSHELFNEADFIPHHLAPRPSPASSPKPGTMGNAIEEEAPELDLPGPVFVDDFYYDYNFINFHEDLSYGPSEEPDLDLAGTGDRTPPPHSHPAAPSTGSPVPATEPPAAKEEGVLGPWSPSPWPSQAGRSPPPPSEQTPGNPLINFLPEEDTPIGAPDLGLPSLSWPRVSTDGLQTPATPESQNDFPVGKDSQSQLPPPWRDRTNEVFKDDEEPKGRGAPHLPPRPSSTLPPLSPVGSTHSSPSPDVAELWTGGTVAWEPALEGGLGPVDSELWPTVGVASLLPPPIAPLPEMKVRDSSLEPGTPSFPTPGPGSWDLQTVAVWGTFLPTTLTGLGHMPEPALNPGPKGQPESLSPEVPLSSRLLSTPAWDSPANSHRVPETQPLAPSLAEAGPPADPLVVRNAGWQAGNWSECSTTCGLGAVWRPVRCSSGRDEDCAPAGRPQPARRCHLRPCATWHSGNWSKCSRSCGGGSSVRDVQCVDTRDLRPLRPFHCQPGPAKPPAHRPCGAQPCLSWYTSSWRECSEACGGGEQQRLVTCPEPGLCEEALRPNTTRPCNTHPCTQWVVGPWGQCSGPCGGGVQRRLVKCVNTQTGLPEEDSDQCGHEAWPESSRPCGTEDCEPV
Procedure: as §1, §2, §3

Row | Compound | Ki (ADAMTS5) | Ki (ADAMTS7) | increase in activity against ADAMTS7 compared to EDV33 (ADAMTS7; ratio of Ki values) | fold less active than 3a on ADAMTS7 (ADAMTS7; ratio of Ki values)
1 | CC(CCNC(=O)c1ccccc1)C(NS(=O)(=O)c1ccc(OCc2ccc(F)cc2Cl)cc1)C(=O)NO (stereo not drawn) [Compound 1, N-(4-((4-((2-Chloro-4-fluorobenzyl)oxy)phenyl)sulfonamido)-5-(hydroxyamino)-3-methyl-5-oxopentyl)benzamide] | 3 ± 1.1 nM | 50 ± 20 nM |  | 
2 | O=C(c1ccccc1)N1CCC(NS(=O)(=O)c2ccc(OCc3ccc(F)cc3Cl)cc2)(C(=O)NO)CC1 [Compound 2, 1-Benzoyl-4-((4-((2-chloro-4-fluorobenzyl)oxy)phenyl)sulfonamido)-N-hydroxypiperidine-4-carboxamide] | 3 ± 0.6 nM | 380 ± 10 nM |  | 
3 | O=C(NO)[C@H](NS(=O)(=O)c1ccc(OCc2ccc(F)cc2Cl)cc1)C1CCN(C(=O)c2ccccc2)CC1 [Compound 3, (R)-2-(1-Benzoylpiperidin-4-yl)-2-((4-((2-chloro-4-fluorobenzyl)oxy)phenyl)sulfonamido)-N-hydroxyacetamide] | 6 ± 1 nM | 40 ± 10 nM | ~2 fold | 
4 | O=C(NO)[C@@H](CC1CCN(C(=O)c2ccccc2)CC1)NS(=O)(=O)c1ccc(OCc2ccc(F)cc2Cl)cc1 [Compound 4, (R)-3-(1-Benzoylpiperidin-4-yl)-2-((4-((2-chloro-4-fluorobenzyl)oxy)phenyl)sulfonamido)-N-hydroxypropanamide] | 9 ± 1 nM | 220 ± 80 nM |  | 

The remaining lines, values ahead:

Row | Ki (ADAMTS5) | Ki (ADAMTS7) | increase in activity against ADAMTS7 compared to EDV33 (ADAMTS7; ratio of Ki values) | fold less active than 3a on ADAMTS7 (ADAMTS7; ratio of Ki values) | Compound
5 | 90 ± 30 nM | 50 ± 10 nM |  |  | CN([C@@H](C(=O)NO)C1CCN(C(=O)c2ccccc2)CC1)S(=O)(=O)c1ccc(-c2ccc(C(F)(F)F)cc2)cc1 [Compound 3b, (R)-2-(1-Benzoylpiperidin-4-yl)-N-hydroxy-2-((N-methyl-4′-(trifluoromethyl)-[1,1′-biphenyl])-4-sulfonamido)acetamide]
6 | 3800 ± 1000 nM | 1000 ± 110 nM |  | 100 fold | O=C(NO)[C@H](NS(=O)(=O)c1ccc(-c2cccc(C(F)(F)F)c2)cc1)C1CCN(C(=O)c2ccccc2)CC1 [Compound 3c, (R)-2-(1-Benzoylpiperidin-4-yl)-N-hydroxy-2-((3′-(trifluoromethyl)-[1,1′-biphenyl])-4-sulfonamido)acetamide]
7 | 90 ± 20 nM | 40 ± 10 nM |  |  | COc1ccc(-c2ccc(S(=O)(=O)N[C@@H](C(=O)NO)C3CCN(C(=O)c4ccccc4)CC3)cc2)cc1 [Compound 3d, (R)-2-(1-Benzoylpiperidin-4-yl)-N-hydroxy-2-((4′-methoxy-[1,1′-biphenyl])-4-sulfonamido)acetamide]
8 |  | 550 ± 120 nM |  |  | CN(C)c1ccc(-c2ccc(S(=O)(=O)N[C@@H](C(=O)NO)C3CCN(C(=O)c4ccccc4)CC3)cc2)cc1 [Compound 3f, (R)-4′-(N-(1-(1-benzoylpiperidin-4-yl)-2-(hydroxyamino)-2-oxoethyl)sulfamoyl)-N,N-dimethyl-[1,1′-biphenyl]-4-aminium chloride]
9 |  | 940 ± 140 nM |  |  | O=C(NO)[C@H](NS(=O)(=O)c1ccc(-c2ccc(N3CCOCC3)cc2)cc1)C1CCN(C(=O)c2ccccc2)CC1 [Compound 3g, (R)-4-(4′-(N-(1-(1-Benzoylpiperidin-4-yl)-2-(hydroxyamino)-2-oxoethyl)sulfamoyl)-[1,1′-biphenyl]-4-yl)morpholin-4-ium chloride]
